The structures appear in SMILES notation. “Also recorded” adds a separate entry of the source. Where two headings read alike, the source gives them in different places.

The values that follow come from article PMC6318274, “Lattice engineering enables definition of molecular features allowing for potent small-molecule inhibition of HIV-1 entry” (Nature Communications, 2019).

The test system of data set [1] is TZM-bl cells. The arrangement: method as in literature. The conditions noted are these: not measured here; ref literature; cited from earlier work.
Data set [2] concerns HIV-1 Env-pseudoviruses (30-strain panel). The experiment in a line: Neutralization assay, cross-clade 30-strain panel (Env-pseudoviruses, TZM-bl target cells). The data set is classed as cell-based. The conditions noted are these: for IC50: Human immunodeficiency virus 1, TZM-bl; for number of viruses neutralized: of the 30 viruses. Here is the method: Neutralization was measured using single-round-of-infection HIV-1 Env-pseudoviruses and TZM-bl target cells (ARP Cat No. #8129)[44],[45]. Compounds were prepared at 400 μM with 4% DMSO (dimethyl sulfoxide) in PBS (phosphate-buffered saline) and diluted 20 times as the starting concentration for serial dilution in the neutralization assays. […] After incubation at 37 °C for 2 days, infection of target cells was measured by luciferase activity. Neutralization curves were fit by nonlinear regression using a five-parameter hill slope equation[45].

In another data set the test system is HIV-1 strain NL4-3. The experiment in a line: Entry inhibition of laboratory-adapted HIV-1 strain NL4-3. The class given is cell-based.
The test system of data set [3] is TZM-bl cells. Briefly: Cytotoxicity in the neutralization assay (TZM-bl cells + drugs). The conditions noted are these: highest concentration (20 μM).
The mark [4] stands for this setting: 242-14 (Clade AG), read-out: IC50.
The mark [5] stands for this setting: 247-23 (Clade D), read-out: IC50.
The mark [6] stands for this setting: 0330.v4.c3 (Clade A), read-out: IC50.
[7] abbreviates: 7165.18 (Clade B), read-out: IC50.
Setting [8] is: BJOX028000.10.3 (Clade AE), read-out: IC50.
The mark [9] stands for this setting: BL01.DG (Clade B), read-out: IC50.
[10] abbreviates: C4118.09 (Clade AE), read-out: IC50.
[11] abbreviates: CAP210.E8 (Clade C), read-out: IC50.
The mark [12] stands for this setting: CH119.10 (Clade BC), read-out: IC50.
Where [13] appears, read: CNE10 (Clade B), read-out: IC50.
Where [14] appears, read: CNE20 (Clade BC), read-out: IC50.
Where [15] appears, read: CNE56 (Clade AE), read-out: IC50.
Where [16] appears, read: DJ263.8 (Clade AG), read-out: IC50.
Setting [17] is: DU156.12 (Clade C), read-out: IC50.
Where [18] appears, read: Geomean, 30-strain panel, read-out: Geometric mean IC50.
Setting [19] is: KER2008.12 (Clade A), read-out: IC50.
The mark [20] stands for this setting: MB201.A1 (Clade A), read-out: IC50.
Where [21] appears, read: NKU3006.ec1 (Clade D), read-out: IC50.
[22] abbreviates: P0402.c2.11 (Clade G), read-out: IC50.
Setting [23] is: PVO.04 (Clade B), read-out: IC50.
The mark [24] stands for this setting: R3265.c6 (Clade AE), read-out: IC50.
Where [25] appears, read: REJO.67 (Clade B), read-out: IC50.
The mark [26] stands for this setting: T253-11 (Clade AG), read-out: IC50.
Where [27] appears, read: T280-5 (Clade AG), read-out: IC50.
Setting [28] is: ZM106.9 (Clade C), read-out: IC50.

In general, IC50 refers to the concentration that gives 50% inhibition. For the compound `COc1ccnc2[nH]cc(C(=O)C(=O)N3CCN(C(=O)c4ccccc4)C[C@H]3C)c12` [BMS-378806, 4-benzoyl-1-[(4-methoxy-1H-pyrrolo[2,3-b]pyridin-3-yl)oxoacetyl]-2-(R)-methylpiperazine, reference compound], the Cytotoxicity result in the data set on TZM-bl cells [1] is listed as “lack of cytotoxicity”. For the same compound, in data set [2] (read-out: Geometric mean IC50), the IC50 was greater than 912 nM.
Regarding `O=C(C(=O)N1CCN(C(=O)c2ccccc2)CC1)c1c[nH]c2c(F)ccc(Br)c12` [BMS-386150], the “fold lower neutralization potency than BMS-378806” value in data set [2] (30-strain panel) is on record as ~ 7 fold. In addition, the IC50 in data set [2] (setting [4]) was 7020 nM; in data set [2] (setting [5]), greater than 20000 nM; in data set [2] (setting [6]), greater than 20000 nM; in data set [2] (426c (Clade C), read-out: IC50) it was 6620 nM; in data set [2] (setting [7]), greater than 20000 nM; in data set [2] (B41 (Clade B), read-out: IC50) it was 117 nM. Besides, the IC50 in data set [2] (setting [8]) is greater than 20000 nM; in data set [2] (setting [9]), greater than 20000 nM; in data set [2] (setting [10]), greater than 20000 nM; in data set [2] (setting [11]), greater than 20000 nM; in data set [2] (setting [12]), 13700 nM; in data set [2] (setting [13]), 509 nM. The IC50 in data set [2] (setting [14]) is greater than 20000 nM; in data set [2] (setting [15]) it was greater than 20000 nM; in data set [2] (setting [16]) it was greater than 20000 nM; in data set [2] (setting [17]), 1350 nM; in data set [2] (setting [18]), greater than 6720 nM; in data set [2] (setting [19]), greater than 20000 nM. The IC50 in data set [2] (setting [20]) was greater than 20000 nM; in data set [2] (setting [21]), 256 nM; in data set [2] (setting [22]), greater than 20000 nM; in data set [2] (setting [23]) it was 664 nM; in data set [2] (setting [24]) it was greater than 20000 nM; in data set [2] (setting [25]), greater than 20000 nM. The IC50 in data set [2] (setting [26]) is 541 nM; in data set [2] (setting [27]) it was 2020 nM; in data set [2] (setting [28]) it was 10800 nM; in data set [2] (read-out: IC50) it was 4670 nM.
Usually EC50 stands for the concentration that produces a half-maximal response. A lower EC50 goes with a more potent agent. In the case of `COc1cnc(-c2csc(CN(C)CCCN(C)C)n2)c2[nH]cc(C(=O)C(=O)N3CCC(=C(C#N)c4ccccc4)CC3)c12` [BMS-814508], in the data set on HIV-1 strain NL4-3 (Human immunodeficiency virus 1, NL43, NL4-3), the half-maximal effective concentration (EC50) was determined as 0.495 ± 0.069 nM. The “fold more potent than BMS-626529” value in the data set on HIV-1 strain NL4-3 (NL4-3 EC50) is 4 fold. Moreover, the IC50 in data set [2] (setting [4]) was 15 nM; in data set [2] (setting [5]), 16 nM; in data set [2] (setting [6]) it was 96 nM; in data set [2] (426c (Clade C), read-out: IC50) it was 36 nM; in data set [2] (setting [7]) it was 491 nM; in data set [2] (B41 (Clade B), read-out: IC50), 1 nM. In addition, the IC50 in data set [2] (setting [8]) is greater than 4000 nM; in data set [2] (setting [9]), 2810 nM; in data set [2] (setting [10]) it was 2000 nM; in data set [2] (setting [11]), 400 nM; in data set [2] (setting [12]), 4 nM; in data set [2] (setting [13]) it was 4 nM. Besides, the IC50 in data set [2] (setting [14]) is 143 nM; in data set [2] (setting [15]), greater than 4000 nM; in data set [2] (setting [16]), less than 0.3 nM; in data set [2] (setting [17]), 20 nM; in data set [2] (setting [18]), greater than 51 nM; in data set [2] (setting [19]), 165 nM. Besides, the IC50 in data set [2] (setting [20]) came out at 192 nM; in data set [2] (setting [21]) it was 1 nM; in data set [2] (setting [22]), 12 nM; in data set [2] (setting [23]), 2 nM; in data set [2] (setting [24]), 1060 nM; in data set [2] (setting [25]) it was 2730 nM. Besides, the IC50 in data set [2] (setting [26]) was less than 0.3 nM; in data set [2] (setting [27]) it was 0.8 nM; in data set [2] (setting [28]) it was 31 nM; in data set [2] (read-out: IC50), 8 nM. The “number of viruses neutralized” value in data set [2] came out at 28. The Cytotoxicity result in the data set with TZM-bl cells [3] is reported as “showed cytotoxicity; also recorded: Cytotoxicity was observed”.
Turning to `O=C(c1ccsc1)N1CCN(C(=O)C2(c3cccc(Cl)c3)CC2)CC1` [Compound 484, reference compound], the IC50 was greater than 20000 nM in data set [2] (setting [4]); greater than 20000 nM in data set [2] (setting [5]); greater than 20000 nM in data set [2] (setting [6]); 13400 nM in data set [2] (426c (Clade C), read-out: IC50); greater than 20000 nM in data set [2] (setting [7]); 1730 nM in data set [2] (B41 (Clade B), read-out: IC50). Moreover, the IC50 in data set [2] (setting [8]) is greater than 20000 nM; in data set [2] (setting [9]), greater than 20000 nM; in data set [2] (setting [10]), greater than 20000 nM; in data set [2] (setting [11]) it was greater than 20000 nM; in data set [2] (setting [12]), greater than 20000 nM; in data set [2] (setting [13]) it was 1940 nM. Besides, the IC50 in data set [2] (setting [14]) was greater than 20000 nM; in data set [2] (setting [15]), greater than 20000 nM; in data set [2] (setting [16]), 2780 nM; in data set [2] (setting [17]) it was 7690 nM; in data set [2] (setting [18]) it was greater than 12300 nM; in data set [2] (setting [19]), greater than 20000 nM. For the same compound, the IC50 in data set [2] (setting [20]) is greater than 20000 nM; in data set [2] (setting [21]), 1650 nM; in data set [2] (setting [22]), greater than 20000 nM; in data set [2] (setting [23]), 7870 nM; in data set [2] (setting [24]), greater than 20000 nM; in data set [2] (setting [25]) it was greater than 20000 nM. The IC50 in data set [2] (setting [26]) is 3350 nM; in data set [2] (setting [27]) it was 11900 nM; in data set [2] (setting [28]), greater than 20000 nM; in data set [2] ([…], read-out: IC50), 13600 nM; in data set [2] (read-out: IC50), greater than 20000 nM. In data set [2], the “number of viruses neutralized” value is on record as 11.
